pIC50: −log10 of the molar value.
What was measured:
[1] = test system: human cervical tumor cell line HeLa (ATCC CCL-2); assay: SAC-Formation - Paclitaxel-Induced Assay; format: cell-based; conditions: Homo sapiens, HeLa, 24 h, HeLa cells, paclitaxel 0.05 μM, test range 0.005 μM-20 μM, read-out: IC50 [mol/l] SAC-Formation - Paclitaxel-Induced Assay
Procedure, shortened: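 HeLa cells incubated overnight at 37° C, then given paclitaxel (0.05 μM final) plus test compound (0.005–20 μM, 0.5% DMSO) together for 24 h at 37° C. Fixed cells stained for phospho-histone H3 Ser10 (mitotic cells) and Hoechst 33342 (cell count); imaging-derived mitotic index fitted by four-parameter Hill equation.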

HeLa = assay: Proliferation assay (crystal violet), HeLa; format: cell-based; conditions: Homo sapiens, HeLa, 96 h, HeLa cells; 4 days incubation; crystal violet staining; read-out: IC50 inhibition of proliferation, HeLa
Procedure, shortened: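 Seed 1000–5000 cells/well, 10% FCS; 24 h later replace medium and add compound (0.001–10 μM, 0.5% DMSO); incubate 4 d; glutaraldehyde fix, 0.1% crystal violet pH 3.0, elute with 10% acetic acid; A595; 4-parameter IC50.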

Row | pIC50 [1] | pIC50 (HeLa) | SMILES
1 | 5.33 | < 5.00 | Cc1nsc(Nc2ccc(C#N)cn2)c1C(=O)Nc1cccc(C(=O)NC2CC2)c1 [Example 250, 5-[(5-cyanopyridin-2-yl)amino]-N-[3-(cyclopropylcarbamoyl)phenyl]-3-methyl-1,2-thiazole-4-carboxamide]
2 | 5.70 | 5.15 | Cc1nsc(Nc2cnc3ccccc3n2)c1C(=O)Nc1cccc(NS(=O)(=O)C2CCN(C(=O)OC(C)(C)C)CC2)c1 [Example 258, tert-butyl 4-{[3-({[3-methyl-5-(quinoxalin-2-ylamino)-1,2-thiazol-4-yl]carbonyl}amino)phenyl]sulfamoyl} piperidine-1-carboxylate]
3 | 6.96 | 6.51 | Cc1nsc(Nc2cncc(C(F)(F)F)n2)c1C(=O)Nc1ccc(F)c(OC2CCN(CC(F)F)CC2)c1 [Example 268, N-(3-{[1-(2,2-difluoroethyl)piperidin-4-yl]oxy}-4-fluorophenyl)-3-methyl-5-{[6-(trifluoromethyl)pyrazin-2-yl]amino}-1,2-thiazole-4-carboxamide]
4 | 5.15 | 5.08 | Cc1nsc(Nc2cnc3ccccc3n2)c1C(=O)Nc1cccc(NS(=O)(=O)C2CCN(CCC(F)(F)F)CC2)c1 [Example 283, 3-methyl-5-(quinoxalin-2-ylamino)-N-[3-({[1-(3,3,3-trifluoropropyl)piperidin-4-yl]sulfonyl}amino)phenyl]-1,2-thiazole-4-carboxamide]
5 | 6.68 | 6.08 | Cc1nsc(Nc2cncc(C(F)(F)F)n2)c1C(=O)Nc1ccc(F)c(OC2CCN(CCF)CC2)c1 [Example 269, N-(4-fluoro-3-{[1-(2-fluoroethyl)piperidin-4-yl]oxy}phenyl)-3-methyl-5-{[6-(trifluoromethyl)pyrazin-2-yl]amino}-1,2-thiazole-4-carboxamide]
6 | 6.21 | 6.20 | Cc1nsc(Nc2cnc(C(F)(F)F)cn2)c1C(=O)Nc1ccc(F)c(OCC2CCN(CCF)CC2)c1 [Example 309, N-(4-fluoro-3-{[1-(2-fluoroethyl)piperidin-4-yl]methoxy}phenyl)-3-methyl-5-{[5-(trifluoromethyl)pyrazin-2-yl]amino}-1,2-thiazole-4-carboxamide]
7 | 5.68 | 5.03 | Cc1nsc(Nc2cnc(C(F)(F)F)cn2)c1C(=O)Nc1ccc(C(=O)NC2CN(CC(F)F)C2)cc1 [Example 271, N-(4-{[1-(2,2-difluoroethyl)azetidin-3-yl]carbamoyl}phenyl)-3-methyl-5-{[5-(trifluoromethyl)pyrazin-2-yl]amino}-1,2-thiazole-4-carboxamide]
8 | 5.96 | 5.21 | Cc1nsc(Nc2cnc3ccccc3n2)c1C(=O)Nc1cccc(C(=O)NC2CC2)c1 [Example 249, N-[3-(cyclopropylcarbamoyl)phenyl]-3-methyl-5-(quinoxalin-2-ylamino)-1,2-thiazole-4-carboxamide]
9 | 5.00 | 5.49 | Cc1nsc(Nc2cnc(C(F)(F)F)cn2)c1C(=O)Nc1ccc(OCCO)nc1 [Example 277, N-[6-(2-hydroxyethoxy)pyridin-3-yl]-3-methyl-5-{[5-(trifluoromethyl)pyrazin-2-yl]amino}-1,2-thiazole-4-carboxamide]
10 | 6.52 | 6.22 | Cc1nsc(Nc2cnc(C(F)(F)F)cn2)c1C(=O)Nc1ccc(OC2CCN(CC(F)F)C2)nc1 (stereo not shown) [Example 296, N-(6-{[1-(2,2-difluoroethyl)pyrrolidin-3-yl]oxy}pyridin-3-yl)-3-methyl-5-{[5-(trifluoromethyl)pyrazin-2-yl]amino}-1,2-thiazole-4-carboxamide]
11 | 5.52 | 5.35 | CCNC(=O)c1cccc(NC(=O)c2c(C)nsc2Nc2cnc3ccccc3n2)c1 [Example 251, N-[3-(ethylcarbamoyl)phenyl]-3-methyl-5-(quinoxalin-2-ylamino)-1,2-thiazole-4-carboxamide]
12 | 7.22 | 6.11 | Cc1nsc(Nc2cnc(C(F)(F)F)cn2)c1C(=O)Nc1ccc(F)c(OC2CCN(CC(F)(F)F)C2)c1 (stereo not shown) [Example 315, N-(4-fluoro-3-{[1-(2,2,2-trifluoroethyl)pyrrolidin-3-yl]oxy}phenyl)-3-methyl-5-{[5-(trifluoromethyl)pyrazin-2-yl]amino}-1,2-thiazole-4-carboxamide]
13 | 6.92 | 6.27 | Cc1nsc(Nc2cnc(C(F)(F)F)cn2)c1C(=O)Nc1cccc(NC(=O)OC(C)(C)C)c1 [Example 284, 3-tert-butyl (3-{[(3-methyl-5-{[5-(trifluoromethyl)pyrazin-2-yl]amino}-1,2-thiazol-4-yl)carbonyl]amino}phenyl)carbamate]
14 | 5.64 | < 5.00 | Cc1nsc(Nc2cc(C#N)ccn2)c1C(=O)Nc1cccc(C(=O)NC(C)C)c1 [Example 254, 5-[(4-cyanopyridin-2-yl)amino]-N-[3-(isopropylcarbamoyl)phenyl]-3-methyl-1,2-thiazole-4-carboxamide]
15 | 4.70 | 5.00 | Cc1nsc(Nc2cc(C#N)ccn2)c1C(=O)Nc1ccc(OC2CCNCC2)nc1 [Example 24, 5-[(4-Cyanopyridin-2-yl)amino]-3-methyl-N-[6-(piperidin-4-yloxy)pyridin-3-yl]-1,2-thiazole-4-carboxamide]
16 | 5.62 | 5.24 | Cc1nsc(Nc2cncc(C(F)(F)F)n2)c1C(=O)Nc1ccc(C(=O)N2CCN(CC(F)(F)F)CC2)cc1 [Example 272, 3-methyl-N-(4-{[4-(2,2,2-trifluoroethyl)piperazin-1-yl]carbonyl}phenyl)-5-{[6-(trifluoromethyl)pyrazin-2-yl]amino}-1,2-thiazole-4-carboxamide]
17 | 5.21 | 5.00 | Cc1nsc(Nc2cnc3ccccc3n2)c1C(=O)Nc1cccc(NS(=O)(=O)C2CN(CCC(F)(F)F)C2)c1 [Example 288, 3-methyl-5-(quinoxalin-2-ylamino)-N-[3-({[1-(3,3,3-trifluoropropyl)azetidin-3-yl]sulfonyl}amino)phenyl]-1,2-thiazole-4-carboxamide]
18 | 5.36 | < 5.00 | CCN1CCN(C(=O)c2ccc(NC(=O)c3c(C)nsc3Nc3cncc(C(F)(F)F)n3)cc2)CC1 [Example 275, N-{4-[(4-ethylpiperazin-1-yl)carbonyl]phenyl}-3-methyl-5-{[6-(trifluoromethyl)pyrazin-2-yl]amino}-1,2-thiazole-4-carboxamide]
19 | 7.05 | 6.44 | Cc1nsc(Nc2cncc(C(F)(F)F)n2)c1C(=O)Nc1ccc(OC2CCN(CCC(F)(F)F)CC2)nc1 [Example 304, 3-methyl-5-{[6-(trifluoromethyl)pyrazin-2-yl]amino}-N-(6-{[1-(3,3,3-trifluoropropyl)piperidin-4-yl]oxy}pyridin-3-yl)-1,2-thiazole-4-carboxamide]
20 | 5.41 | 5.10 | Cc1nsc(Nc2cnc3ccccc3n2)c1C(=O)Nc1cccc(NS(=O)(=O)C2CCN(CC(F)(F)F)CC2)c1 [Example 281, 3-methyl-5-(quinoxalin-2-ylamino)-N-[3-({[1-(2,2,2-trifluoroethyl)piperidin-4-yl]sulfonyl}amino)phenyl]-1,2-thiazole-4-carboxamide]
21 | 7.29 | 6.47 | Cc1nsc(Nc2cnc(C(F)(F)F)cn2)c1C(=O)Nc1ccc(F)c(OCC2CCN(CC(F)F)CC2)c1 [Example 308, N-(3-{[1-(2,2-difluoroethyl)piperidin-4-yl]methoxy}-4-fluorophenyl)-3-methyl-5-{[5-(trifluoromethyl)pyrazin-2-yl]amino}-1,2-thiazole-4-carboxamide]
22 | 7.70 | 6.24 | Cc1nsc(Nc2cncc(C(F)(F)F)n2)c1C(=O)Nc1ccc(F)c(OC2CCN(CC(F)(F)F)CC2)c1 [Example 267, N-(4-fluoro-3-{[1-(2,2,2-trifluoroethyl)piperidin-4-yl]oxy}phenyl)-3-methyl-5-{[6-(trifluoromethyl)pyrazin-2-yl]amino}-1,2-thiazole-4-carboxamide]
23 | 5.70 | 6.26 | Cc1nsc(Nc2cnc(C(F)(F)F)cn2)c1C(=O)Nc1ccc(N(C)C)c(OCCCN(C)CCC(F)(F)F)c1 [Example 300, N-[4-(dimethylamino)-3-{3-[methyl(3,3,3-trifluoropropyl)amino]propoxy}phenyl]-3-methyl-5-{[5-(trifluoromethyl)pyrazin-2-yl]amino}-1,2-thiazole-4-carboxamide]
24 | 5.09 | 5.00 | Cc1nsc(Nc2cnc3ccccc3n2)c1C(=O)Nc1cccc(NS(=O)(=O)C2CN(CCF)C2)c1 [Example 287, N-[3-({[1-(2-fluoroethyl)azetidin-3-yl]sulfonyl}amino)phenyl]-3-methyl-5-(quinoxalin-2-ylamino)-1,2-thiazole-4-carboxamide]
25 | 6.03 | 5.51 | Cc1nsc(Nc2cnc3ccccc3n2)c1C(=O)Nc1ccc(N2CCN(C(=O)OC(C)(C)C)CC2)nc1 [Example 248, tert-butyl 4-[5-({[3-methyl-5-(quinoxalin-2-ylamino)-1,2-thiazol-4-yl]carbonyl}amino)pyridin-2-yl]piperazine-1-carboxylate]
26 | 5.44 | < 5.00 | COC(=O)CCCc1ccc(NC(=O)c2c(C)nsc2Nc2cc(C#N)ccn2)cc1 [Example 256, methyl 4-{4-[({5-[(4-cyanopyridin-2-yl)amino]-3-methyl-1,2-thiazol-4-yl}carbonyl)amino]phenyl}butanoate]

— US20170334899A1, “AMINO-SUBSTITUTED ISOTHIAZOLES” (Bayer Pharma Aktiengesellschaft, priority 2014, published 2017)
